Measured values reported in US5196446A (priority 1991, dated 1993).

Assays:
[1] = target: T1, EGF receptor tyrosine kinase (Homo sapiens, UniProt P00533); type: biochemical; conditions: for IC50: read-out: IC50 (concentration of inhibitor required to inhibit 50% of polyGAT phosphorylation)
T1 construct: WGA-purified EGF receptor from A431 cells; endogenous in cells; host or cells: A431 cells (solubilized, receptor enriched on WGA-agarose)

EGF receptor [2] = target: T2, EGF receptor (Homo sapiens, UniProt P00533); conditions: read-out: Km for ATP in autophosphorylation; 15° C.; 10-s assay
Procedure: ATP and EGF Dependence of Autophosphorylation
With use of the 10-s assay protocol, the EGF concentration dependence of EGFRK autophosphorylation is determined.

other protein kinases = conditions: PTK inhibitors which compete with ATP; cited from earlier work
[3] = as a result of inhibiting other protein kinases; cited from earlier work
[4] = test system: cyclic adenosine 3',5'-monophosphate (cAMP)-dependent protein kinase; conditions: in words; compared with EGF receptor autophosphorylation; cited from earlier work
EGF receptor [5] = target: T2, EGF receptor; design: EGF receptor in membranes of A431 cells; host or cells: membranes of A431 cells; conditions: cited from earlier work
EGF receptor [6] = target: T2, EGF receptor; assay: Inhibition of EGFR autophosphorylation (A431 cell lysate, EGF stimulation); type: biochemical; design: EGF receptor in membranes of A431 cells; host or cells: membranes of A431 cells
Procedure: Inhibition of EGFR Autophosphorylation
A431 cells were grown to confluence on human fibronectin coated tissue culture dishes. After washing 2 times with ice-cold PBS, cells were lysed by the addition of 500 μl/dish of lysis buffer (50 mmol Hepes, pH 7.5, 150 mmol NaCl, 1.5 mmol Mg Cl2, 1 mmol EGTA, 10% glycerol, 1% triton X-100, 1 mmol PMSF, 1 mg/ml aprotinin, I mg/ml leupeptin) and incubating 5 minutes at 4° C. After EGF stimulation ([…] 10 minutes at 37° C.) immunoprecipitation was performed with anti EGF-R (Ab 108) and the autophosphorylation reaction (50 μl aliquots, 3 μCi [γ-^32 P]ATP) sample was carried out in the presence of 2 or 10 μM of compound, for 2 minutes at 4° C. The reaction was stopped by adding hot electrophoresis sample buffer. SDS-PAGE analysis (7.5% els) was followed by autoradiography and the reaction was quantitated by densitometry scanning of the x-ray films. In order to test the compounds for selective inhibition, the procedure is repeated using PDGF stimulation in place of EGF stimulation.

Compound `Nc1ncnc2c1ncn2[C@@H]1O[C@H](COP(=O)(O)OP(=O)(O)OP(=O)(O)O)[C@@H](O)[C@H]1O` [ATP, adenosine triphosphate] has a Km ([1]; read-out: Km for ATP in the poly(GAT) assay) of 2.9 µM and a Km (EGF receptor [2]) of 7.2 µM.
In the case of `O=c1c(O)c(-c2ccc(O)c(O)c2)oc2cc(O)cc(O)c12` [quercetin], the “inhibition of other protein kinases” value (other protein kinases) is given as “inhibit other protein kinases” and the cytotoxicity [3] is given as “highly cytotoxic”.
In the case of `O=CN/C=C/c1cc(O)ccc1O` [erbstatin], the “concentration required to inhibit cAMP-dependent protein kinase” value [4] is listed as “much higher concentrations”, the “concentration required to inhibit EGF receptor autophosphorylation” value (EGF receptor [5]; in words, compared with cAMP-dependent protein kinase) is listed as “Low concentrations” and the “inhibition of EGF receptor autophosphorylation” value (EGF receptor [5]; membranes of A431 cells) is listed as “inhibits the autophosphorylation of the EGF receptor”.
For `N#CC(C#N)=Cc1c[nH]cn1` [Example 3, 4-Imidazolidene malononitrile], the IC50 [1] was 2600 µM.
Work on `N#CC(C#N)=Cc1ccc2[nH]ccc2c1` [Example 5, 5-Indolidene malononitrile] yielded an IC50 [1] of 2200 µM.
Work on `N#CC(=Cc1ccc2c(c1)OCO2)c1ccccn1` [Example 8, 2-(2-pyridyl)-3-[3,4-(methylenedioxy)phenyl]-2-propenenitrile] yielded an IC50 (EGF receptor [6]) of 1 µM.
In the case of `O=c1c(-c2ccc(O)cc2)coc2cc(O)cc(O)c12` [genistein], the “inhibition of other protein kinases” value (other protein kinases) is given as “inhibit other protein kinases” and the cytotoxicity [3] is given as “highly cytotoxic”.
